{"source": "patent US20190060249A1", "about": "(priority 2017, published 2019)", "key": {"ALDH2": {"target": "T1, ALDH2 (Homo sapiens, UniProt P05091)", "T1 sequence (P05091 18-517)": "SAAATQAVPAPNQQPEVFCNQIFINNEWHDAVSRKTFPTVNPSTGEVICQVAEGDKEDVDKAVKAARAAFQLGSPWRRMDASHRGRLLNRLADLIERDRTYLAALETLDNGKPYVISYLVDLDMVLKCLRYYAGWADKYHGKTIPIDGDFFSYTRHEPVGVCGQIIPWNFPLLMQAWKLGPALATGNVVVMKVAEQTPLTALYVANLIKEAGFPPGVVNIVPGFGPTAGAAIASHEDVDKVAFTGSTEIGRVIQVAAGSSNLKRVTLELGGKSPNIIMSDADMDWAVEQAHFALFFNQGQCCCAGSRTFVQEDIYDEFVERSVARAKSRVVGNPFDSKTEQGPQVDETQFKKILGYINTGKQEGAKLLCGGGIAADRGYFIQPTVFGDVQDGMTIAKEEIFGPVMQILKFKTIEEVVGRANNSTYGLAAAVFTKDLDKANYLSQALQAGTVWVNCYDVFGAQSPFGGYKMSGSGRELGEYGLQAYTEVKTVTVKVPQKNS", "assay": "ALDH enzymatic assay, recombinant ALDH2", "format": "biochemical", "settings": "5 μg/ml recombinant enzyme, 10 mM acetaldehyde, 20 μM Alda-341", "procedure": "ALDH enzymatic assay: ALDH1A1, ALDH1A2, 2, 3A1, 3A2, 4A1, 5A1, 7A1 were measured as previously described using 5 μg/ml of recombinant protein (Chen, C. H., Cruz, L. A., and Mochly-Rosen, D. (2015) Pharmacological recruitment of aldehyde dehydrogenase 3A1 (ALDH3A1) to assist ALDH2 in acetaldehyde and ethanol metabolism in vivo. Proceedings of the National Academy of Sciences of the United States of America 112, 3074-3079). […] Assays were conducted in 50 mM NaPPi buffer (pH 7.4) in the presence of 2.5 mM NAD^+ and 10 mM substrate and measured in triplicate at 25° C. Dose response curve fits and EC50's were calculated using GraphPad Prism 7 software."}, "[1]": {"tested_on": "E13.5 embryonic SMG epithelia", "assay": "Embryonic epithelial rudiment cultures", "format": "cell-based, mouse", "description": "Embryonic epithelial rudiment cultures: Epithelia and mesenchyme were separated using dispase treatment and mechanical dissection and cultured in a drop of laminin on a nucleopore filter over serum-free DMEM/F12 containing holotransferrin and ascorbic acid (complete media) as described for the E13 submandibular gland (Steinberg, Z., Myers, C., Heim, V. M., Lathrop, C. A., Rebustini, I. T., Stewart, J. S., Larsen, M., and Hoffman, M. P. (2005) FGFR2b signaling regulates ex vivo submandibular gland epithelial cell proliferation and branching morphogenesis. Development (Cambridge, England) 132, 1223-1234). Epithelia were cultured with 400 ng/ml FGF10 (R&D Systems) and 0.5 μl/ml heparin sulfate (Sigma Aldrich) in the presence or absence of 25-200 μM ALDH341 or vehicle (PEG) and were subjected to RNA isolation or fixed for immunostaining after 24-48 h.\nN=6-7 epithelia per group.\n[…] confocal section of all three markers (top) and averaged confocal sections of c-KIT only (bottom).\nSamples were tested in triplicate.\nImmunohistochemistry: Embryonic rudiment immunofluorescence analysis has been previously described in, Knox, S. M., Lombaert, I. M., Reed, X., Vitale-Cross, L., Gutkind, J. S., and Hoffman, M. P. (2010) Parasympathetic innervation maintains epithelial progenitor cells during salivary organogenesis. Science (New York, N.Y.) 329, 1645-1647. In brief, tissue was fixed with 4% PFA for 20-30 min followed by permeabilizing with 0.1-0.3% Triton-X. Tissue was blocked overnight at 4° C. with 10% Donkey Serum (Jackson Laboratories), 1% BSA (Sigma Aldrich), and MOM IgG-blocking reagent (Vector Laboratories) in 0.01% PBS-Tween-20. SGs were incubated with primary antibodies overnight at 4° C.: rabbit anti-cKIT (1:200, Santa Cruz Biotech, M14), and rat anti-E-cadherin (1:300, Life Technologies, 13-1900). Antibodies were detected using Cy2-, Cy3- or Cy5-conjugated secondary Fab fragment antibodies (Jackson Laboratories) and nuclei stained using Hoescht 33342 (1:1000, Sigma Aldrich). Fluorescence was analyzed using a Leica Sp5 confocal microscope and NIH ImageJ software.\nqPCR: RNA was isolated from whole tissue using RNAqueous Micro Kit (Ambion). Total RNA samples were DNase-treated (Ambion), prior to cDNA synthesis using SuperScript reagents (Invitrogen). SYBRgreen qPCR was performed using 1 ng of cDNA and primers designed using Primer3 and Beacon Designer software or found using PrimerBank (http://pga.mgh.harvard.edu/primerbank/). Melt-curves and primer efficiency were determined as previously described (Hoffman, M. P., Kidder, B. L., Steinberg, Z. L., Lakhani, S., Ho, S., Kleinman, H K., and Larsen, M. (2002) Gene expression profiles of mouse submandibular gland development: FGFR1 regulates branching morphogenesis in vitro through BMP- and FGF-dependent mechanisms. Development (Cambridge, England) 129, 5767-5778). Gene expression was normalized to the housekeeping gene S29 (Rps29)."}, "[2]": {"tested_on": "salispheres of C57BL/6 mice", "assay": "Organoid formation assay", "format": "cell-based, mouse", "settings": "25 μM Alda-341, 7 d", "procedure": "Organoids, defined as having greater than or equal to 5 buds, were blindly counted and quantified as a ratio of organoid number to total number of organoids and undifferentiated spheres. 4 replicates per group. All error bars represent SEM. *=p<0.05; **=p<0.01; ***=p<0.001 (Student's t-test).\nOrganoid formation assay: Spheres were dissociated in 1 mg/mL dispase (BD Biosciences) for 20 minutes and resuspended in 80% collagen, 10% 10× F12, and 10% Solution C (2.2 g NaHCO3 in 100 mL of 0.05 N NaOH and 200 mM HEPES) and combined with 60% matrigel. 200 spheres per well were plated in a Millicell cell culture insert (EMD Millipore) with sphere media. Organoids defined as having greater than or equal to 5 buds formed after 2-3 d in culture and were grown for 7 d before imaging with a BZ-X710 Keyence microscope using the z-stack function. Images were stitched together into a single image and the number of differentiated organoids and undifferentiated spheres were blindly counted and quantified as a ratio of organoid number to total number of organoids and undifferentiated spheres. Experiments were repeated at least three independent times."}, "[3]": {"settings": "200 μM Alda-341, RT-qPCR vs vehicle control"}}}
{"compound": "C=C(C)[C@H]1CC=C(C)CC1", "note": "[Alda-341, D-limonene]", "values": [{"measurement": "catalytic activity of ALDH2", "setting": "ALDH2", "result": "did not increase"}, {"measurement": "localisation of c-Kit+ cells (immunofluorescence)", "setting": "[1]; 200 μM Alda-341, 24 h", "result": "limited to the end buds only"}, {"measurement": "expression of acinar progenitor marker Sox10", "setting": "[1]; [3]", "result": "Increased expression"}, {"measurement": "transcript level of acinar maturation marker Aqp5", "setting": "[1]; [3]", "result": "increased transcript levels"}, {"measurement": "transcript level of acinar maturation marker Mist1", "setting": "[1]; [3]", "result": "increased transcript levels"}, {"measurement": "number of end buds", "setting": "[1]; cultured 24 h, 100 μM and 200 μM Alda-341", "result": "dose-dependent increase"}, {"measurement": "epithelial area", "setting": "[1]; cultured 24 h, 100 μM and 200 μM Alda-341, normalized to vehicle control", "result": "dose-dependent increase"}, {"measurement": "more organoids than vehicle-treated control", "setting": "[2]", "result": 25, "unit": "%"}]}
